A short description of the series: Repeat-dose safety and activity study in cynomolgus macaques. Type of series: in vivo. How it is done:
FIG. 21A-D is a graph showing cynomolgus macaques that were treated with vehicle, or 0.1, 1, 10, and 40 mg/kg of SIRPα-Fc-CD40L. Blood chemistry analysis assessed peripheral erythrocyte counts (FIG. 21A), hemoglobin levels (FIG. 21C), and hematocrit (FIG. 21B). In addition, the fold-change in lymphocyte count from pre-dose to 24 hours post-dose is shown (FIG. 21D).
The experiments of this example tested the safety and activity of the human SIRPα-Fc-CD40L chimeric protein following repeat doses in cynomolgus macaques. Briefly, naïve cynomolgus macaques were administered the human SIRPα-Fc-CD40L chimeric protein by intravenous infusion every week, for five consecutive weeks, at doses of 0.1, 1, 10 and 40 mg/kg. Standard hematology and clinical chemistry parameters were collected before and after each dose.
Receptor occupancy was evaluated on circulating CD40+ lymphocytes.

Take “SIRPα-Fc-CD40L: Generic name of the SIRPα ECD-Fc-CD40L ECD chimeric protein; human or murine version depending on the test system”: the “number of CD40+ cells in the peripheral blood” value (0.1, 1, 10 and 40 mg/kg) is given as “dose-dependent decrease in the number of CD40+ cells in the peripheral blood”. In addition, the hematology parameters entry (declines also noted in the vehicle control group) is “Mild declines in hematology parameters”. Also, the “total number of lymphocytes before and after each dose” value (episodic fluctuation) is “did not depart from the upper and lower range of normal”. For the same substance, under “following each infusion”, the “serum cytokines (CCL2, CXCL9, CXCL10, IL-6, IL-15, IL-17A, IL-23)” value is reported as “dose-dependent increases in multiple serum cytokines”.

These data come from patent US20200071380A1, “COMBINATION THERAPIES COMPRISING SIRP ALPHA-BASED CHIMERIC PROTEINS” (Shattuck Labs, Inc., priority 2018, published 2020).
